According to patent publication US20190292189A1, “LIM KINASE INHIBITORS” (VIRONGY, LLC, priority 2016, published 2019):

What was measured:
ROCK-I = ROCK-I (Homo sapiens, UniProt Q13464); test: ROCK-I biochemical counter-screen; conditions: Table 6; read-out: Biochemical Inhibition IC50 (nM) ROCK-I
P450 2C9 = P450 2C9 (Homo sapiens, UniProt P11712); test: P450 inhibition at 10 μM; type: in vitro ADME
[1] = tested on: cofilin phosphorylation in A7r5 cells; test: In-cell Western assay of cofilin phosphorylation in A7r5 cells; type: cell-based; conditions: A7R5, A7r5 cells; read-out: Cofilin Phosphorylation In A7r5 Cells (IC50)
Procedure: A7r5 (15,000 cells/well) were plated in a clear-bottomed Packard View black 96-well plate in 100 μl of 10% FBS DMEM:F12 medium and were allowed to attach overnight. The next day, the cells were serum starved in 1% FBS DMEM medium for 2 hr and then treated with the compounds for 1 hr. […] Next day, they were washed twice with PBS-0.1% Tween 20 (PBST) washing solution for 5 min each at room temperature on the orbital shaker, followed by one wash with Licor Blocking Buffer containing 0.05% Tween-20 for 5 min on the shaker at RT. The cells were then incubated with secondary antibody goat anti-rabbit IR800 (1:500 dilution) for 1 hr at RT in the dark (covered the plate with foil) in Licor blocking buffer-containing Tween-20. Following this, cells were washed twice with PBST for 5 min each at room temperature and then once with Licor blocking buffer-containing 0.05% Tween-20. The wells were then incubated with ToPro 3 stain (nucleic acid staining), diluted 1:4000 in Licor blocking buffer or Licor blocking buffer with 0.05% Tween-20 for 30 min at room temperature in the dark. Finally the plates were washed twice with PBS and analyzed using the Odyssey LICOR Infrared Scanner.

PC-3 cells = test: In vitro migration (wound closure) assay in PC-3 cells; type: cell-based; conditions: Homo sapiens, PC-3, 24 hours, compared to the control, read-out: inhibition of migration of PC-3 cells
Procedure: PC3 cells were cultured to confluence at >90% in 6 well culture dishes in 10% FBS RPMI1640 media the day before the assay. Lines were drawn with a marker on the bottom of the dishes. Using a sterile 1 mL pipet tip, the dishes were scratched three separate wounds through the cells moving perpendicular to the line drawn in the step above. The cells were rinsed with PBS twice very gently and added the RPMI1640 media, and the dishes were taken pictures using phase contrast under Leica DMI3000B microscope.

resting CD4 T cells = test: SDF-1-mediated actin polymerization, FITC-phalloidin staining; type: cell-based, human; conditions: pre-treatment of resting CD4 T cells
Procedure: FIG. 10. Chemical and Biochemical characterization of R10015. a, Chemical structure of R10015 and its docking into the crystal structure of LIMK1 (PDB ID 3S95, Chain A). […] CEM-SS T cells treated with R10015 (100 μM) for a time course, and the phosphorylation of cofilin, LIMK, and PAK1/2 were measured by Western Blot. Levels of each protein or GAPDH were also measured for loading control. d, R10015 inhibits Jurkat T cell chemotaxis in responding to SDF-1. e, R10015. f, R10015 inhibits chemotactic actin activity. Resting CD4 T cells were treated with R10015, and then exposed to SDF-1 for a time course. Actin polymerization were measured by FITC-phalloidin staining. g, the relative intensity of F-actin staining was also plotted.
F-actin staining using phalloidin-FITC (Sigma) was carried out as described previously. Briefly, each staining was carried out using 1×10^6 cells. Cells were pelleted, fixed, and permeabilized with CytoPerm/Cytofix buffer (BD Biosciences) for 20 min at room temperature and washed with cold Perm/Wash buffer (BD Biosciences) twice, followed by staining with 5 μl of 0.3 mM FITC-labeled phalloidin (Sigma) for 30 min on ice in the dark. Cells were washed twice with cold Perm/Wash buffer, then were resuspended in 1% paraformaldehyde, and analyzed on a FACSCalibur (BD Biosciences).

HIV-1(Env) = test: Virion release, p24 in supernatant; type: cell-based
HIV-1(AD8) = type: cell-based; conditions: non-toxic dosages
BTK = target: T1, BTK (Homo sapiens, UniProt Q06187); test: Kinase profiling at 1 μM (Reaction Biology); type: biochemical; conditions: ATP 10 μM
T1 construct: purchased Reaction Biology Corporation
T1 sequence (Q06187 whole entry): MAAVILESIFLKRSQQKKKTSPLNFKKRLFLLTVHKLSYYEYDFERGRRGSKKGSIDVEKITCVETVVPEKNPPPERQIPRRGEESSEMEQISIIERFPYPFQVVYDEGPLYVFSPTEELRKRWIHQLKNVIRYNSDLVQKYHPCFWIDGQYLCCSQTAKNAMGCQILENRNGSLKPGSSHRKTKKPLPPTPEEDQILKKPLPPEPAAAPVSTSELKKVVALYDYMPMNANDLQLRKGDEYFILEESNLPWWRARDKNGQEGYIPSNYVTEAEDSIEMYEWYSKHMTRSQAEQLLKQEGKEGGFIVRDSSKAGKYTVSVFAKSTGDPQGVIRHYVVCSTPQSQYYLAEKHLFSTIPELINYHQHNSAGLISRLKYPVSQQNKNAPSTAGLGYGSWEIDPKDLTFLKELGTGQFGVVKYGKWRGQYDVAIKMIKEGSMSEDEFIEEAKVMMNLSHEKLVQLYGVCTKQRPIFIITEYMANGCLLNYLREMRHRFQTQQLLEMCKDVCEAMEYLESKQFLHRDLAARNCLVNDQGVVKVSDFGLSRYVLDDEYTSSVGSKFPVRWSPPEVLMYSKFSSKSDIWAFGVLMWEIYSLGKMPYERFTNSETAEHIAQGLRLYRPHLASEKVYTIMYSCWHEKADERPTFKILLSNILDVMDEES
Procedure: (§1) Profiling was carried out at Reaction Biology Corporation following a protocol described at its website: http://www.reactionbiology.com/webapps/site/. The % data were the average from two determinations. ATP concentration used: 10 μM; Staurosporine was used as the positive control.
(§2) Biochemical assays for all Limk inhibitors and kinase profiling were carried out in Reaction Biology Corporation and followed the protocols described on its website. […] Compounds were tested at 1 μM with duplicate experiments in profiling assays. […] Reactions were carried out at 10 μM ATP, 1 μM substrate cofilin, and 50 nM Limk1 (final concentrations).

CDK5/p35 = target: T2, CDK5/p35 (Homo sapiens, UniProt Q00535); test: Kinase profiling at 1 μM (Reaction Biology); type: biochemical; conditions: ATP 10 μM
T2 construct: purchased Reaction Biology Corporation
Procedure: as §1, §2

FLT3 = target: T3, FLT3 (Homo sapiens, UniProt P36888); test: Kinase profiling at 1 μM (Reaction Biology); type: biochemical; conditions: ATP 10 μM
T3 construct: purchased Reaction Biology Corporation
Procedure: as §1, §2

JNK1 = target: T4, JNK1 (Homo sapiens, UniProt P45983); test: Kinase profiling at 1 μM (Reaction Biology); type: biochemical; conditions: ATP 10 μM
T4 construct: purchased Reaction Biology Corporation
Procedure: as §1, §2

KDR/VEGFR2 = target: T5, KDR/VEGFR2 (Homo sapiens, UniProt P35968); test: Kinase profiling at 1 μM (Reaction Biology); type: biochemical; conditions: ATP 10 μM
T5 construct: purchased Reaction Biology Corporation
T5 sequence (P35968 20-1356): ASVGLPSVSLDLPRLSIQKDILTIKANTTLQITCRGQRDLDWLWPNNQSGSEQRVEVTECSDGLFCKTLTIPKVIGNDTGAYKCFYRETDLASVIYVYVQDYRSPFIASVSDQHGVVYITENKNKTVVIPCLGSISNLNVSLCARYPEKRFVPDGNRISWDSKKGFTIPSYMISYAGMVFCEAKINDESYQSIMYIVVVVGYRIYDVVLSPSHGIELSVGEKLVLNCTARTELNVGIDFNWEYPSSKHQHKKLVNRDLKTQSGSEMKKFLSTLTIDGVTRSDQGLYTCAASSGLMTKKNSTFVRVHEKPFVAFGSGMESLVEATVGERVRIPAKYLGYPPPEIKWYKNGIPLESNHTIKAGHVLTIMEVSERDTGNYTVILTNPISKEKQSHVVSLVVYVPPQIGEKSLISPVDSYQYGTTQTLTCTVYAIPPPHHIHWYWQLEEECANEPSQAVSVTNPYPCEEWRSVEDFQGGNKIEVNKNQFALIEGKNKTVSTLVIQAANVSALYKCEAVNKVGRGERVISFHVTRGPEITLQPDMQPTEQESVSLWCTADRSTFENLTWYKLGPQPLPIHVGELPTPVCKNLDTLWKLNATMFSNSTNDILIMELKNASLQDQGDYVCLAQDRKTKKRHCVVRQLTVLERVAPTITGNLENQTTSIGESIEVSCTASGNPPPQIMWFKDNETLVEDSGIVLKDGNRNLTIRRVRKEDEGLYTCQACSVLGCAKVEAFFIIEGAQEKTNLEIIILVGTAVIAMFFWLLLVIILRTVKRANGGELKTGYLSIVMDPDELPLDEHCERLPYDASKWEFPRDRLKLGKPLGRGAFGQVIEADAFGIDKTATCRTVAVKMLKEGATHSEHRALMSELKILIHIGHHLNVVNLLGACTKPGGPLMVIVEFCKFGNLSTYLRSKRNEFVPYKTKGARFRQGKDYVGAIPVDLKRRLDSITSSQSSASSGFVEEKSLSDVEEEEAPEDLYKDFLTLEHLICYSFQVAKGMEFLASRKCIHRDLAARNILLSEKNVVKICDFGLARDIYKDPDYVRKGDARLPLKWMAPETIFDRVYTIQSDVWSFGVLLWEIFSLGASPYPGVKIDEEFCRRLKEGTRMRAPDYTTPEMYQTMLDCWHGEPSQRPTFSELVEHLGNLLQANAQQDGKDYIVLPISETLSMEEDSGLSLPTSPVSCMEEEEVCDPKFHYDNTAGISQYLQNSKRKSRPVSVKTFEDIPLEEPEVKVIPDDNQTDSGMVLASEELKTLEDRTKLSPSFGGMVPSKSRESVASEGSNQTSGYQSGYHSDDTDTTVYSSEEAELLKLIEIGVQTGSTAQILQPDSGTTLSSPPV
Procedure: as §1, §2

PKCa = target: T6, PKCa (Homo sapiens, UniProt P17252); test: Kinase profiling at 1 μM (Reaction Biology); type: biochemical; conditions: ATP 10 μM
T6 construct: purchased Reaction Biology Corporation
Procedure: as §1, §2

R5K1 = target: T7, R5K1 (Homo sapiens, UniProt Q15418); test: Kinase profiling at 1 μM (Reaction Biology); type: biochemical; conditions: ATP 10 μM
T7 construct: purchased Reaction Biology Corporation
T7 sequence (Q15418 whole entry): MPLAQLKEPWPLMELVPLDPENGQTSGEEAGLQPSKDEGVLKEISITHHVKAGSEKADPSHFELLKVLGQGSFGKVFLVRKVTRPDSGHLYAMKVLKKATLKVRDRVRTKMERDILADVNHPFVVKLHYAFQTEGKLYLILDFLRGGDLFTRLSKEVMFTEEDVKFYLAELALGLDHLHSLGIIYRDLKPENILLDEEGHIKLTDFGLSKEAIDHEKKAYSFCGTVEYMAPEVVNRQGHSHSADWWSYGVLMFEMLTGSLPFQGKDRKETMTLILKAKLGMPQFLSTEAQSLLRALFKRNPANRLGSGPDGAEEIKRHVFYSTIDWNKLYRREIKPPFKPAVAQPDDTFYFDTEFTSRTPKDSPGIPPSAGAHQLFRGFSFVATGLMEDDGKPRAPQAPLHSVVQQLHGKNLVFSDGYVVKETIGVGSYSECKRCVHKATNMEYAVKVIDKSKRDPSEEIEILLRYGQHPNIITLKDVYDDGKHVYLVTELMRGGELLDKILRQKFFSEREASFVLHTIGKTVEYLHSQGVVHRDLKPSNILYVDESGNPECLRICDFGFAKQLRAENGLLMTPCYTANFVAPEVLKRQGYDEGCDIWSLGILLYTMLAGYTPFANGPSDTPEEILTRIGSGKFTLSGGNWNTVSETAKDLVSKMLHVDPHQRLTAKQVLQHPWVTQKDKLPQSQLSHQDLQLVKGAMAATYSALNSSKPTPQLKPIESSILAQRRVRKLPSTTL
Procedure: as §1, §2

ROCK2 = target: T8, ROCK2 (Homo sapiens, UniProt O75116); test: Kinase profiling at 1 μM (Reaction Biology); type: biochemical; conditions: ATP 10 μM
T8 construct: purchased Reaction Biology Corporation
Procedure: as §1, §2

SLK/STK2 = target: T9, SLK/STK2 (Homo sapiens, UniProt Q9H2G2); test: Kinase profiling at 1 μM (Reaction Biology); type: biochemical; conditions: ATP 10 μM
T9 construct: purchased Reaction Biology Corporation
T9 sequence (Q9H2G2 whole entry): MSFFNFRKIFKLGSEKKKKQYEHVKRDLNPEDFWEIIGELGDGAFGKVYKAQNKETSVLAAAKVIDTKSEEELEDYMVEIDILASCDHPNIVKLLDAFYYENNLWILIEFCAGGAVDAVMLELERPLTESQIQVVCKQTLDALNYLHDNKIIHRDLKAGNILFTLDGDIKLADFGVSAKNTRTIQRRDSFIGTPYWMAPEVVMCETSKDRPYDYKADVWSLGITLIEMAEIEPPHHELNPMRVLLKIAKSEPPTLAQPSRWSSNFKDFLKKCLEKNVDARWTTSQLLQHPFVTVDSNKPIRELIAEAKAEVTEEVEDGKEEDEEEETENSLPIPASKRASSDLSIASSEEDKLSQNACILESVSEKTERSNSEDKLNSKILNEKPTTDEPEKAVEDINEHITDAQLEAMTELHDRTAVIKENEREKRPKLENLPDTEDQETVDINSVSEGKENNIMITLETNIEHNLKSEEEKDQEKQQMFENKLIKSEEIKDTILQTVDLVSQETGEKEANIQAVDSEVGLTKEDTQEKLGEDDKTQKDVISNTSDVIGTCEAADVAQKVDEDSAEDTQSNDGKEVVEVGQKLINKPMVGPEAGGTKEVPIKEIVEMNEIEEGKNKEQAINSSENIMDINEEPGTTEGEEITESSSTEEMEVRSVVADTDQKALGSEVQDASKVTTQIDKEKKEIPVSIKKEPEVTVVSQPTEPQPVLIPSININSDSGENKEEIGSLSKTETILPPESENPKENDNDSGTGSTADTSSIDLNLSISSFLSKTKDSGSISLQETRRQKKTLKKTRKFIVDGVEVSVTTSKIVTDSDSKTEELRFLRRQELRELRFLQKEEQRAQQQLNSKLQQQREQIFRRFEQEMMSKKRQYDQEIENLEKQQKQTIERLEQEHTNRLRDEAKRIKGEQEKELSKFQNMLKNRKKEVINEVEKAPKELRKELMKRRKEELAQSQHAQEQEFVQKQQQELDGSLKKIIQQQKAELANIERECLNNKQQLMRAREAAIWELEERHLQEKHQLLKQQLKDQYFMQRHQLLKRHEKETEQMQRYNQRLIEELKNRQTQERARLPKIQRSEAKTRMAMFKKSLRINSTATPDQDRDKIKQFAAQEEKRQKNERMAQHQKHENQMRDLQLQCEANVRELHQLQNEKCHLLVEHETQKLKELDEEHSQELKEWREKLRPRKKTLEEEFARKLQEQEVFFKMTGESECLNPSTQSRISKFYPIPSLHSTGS
Procedure: as §1, §2

TAK1 = target: T10, TAK1 (Homo sapiens, UniProt O43318); test: Kinase profiling at 1 μM (Reaction Biology); type: biochemical; conditions: ATP 10 μM
T10 construct: purchased Reaction Biology Corporation
T10 sequence (O43318 1-303 limits assumed): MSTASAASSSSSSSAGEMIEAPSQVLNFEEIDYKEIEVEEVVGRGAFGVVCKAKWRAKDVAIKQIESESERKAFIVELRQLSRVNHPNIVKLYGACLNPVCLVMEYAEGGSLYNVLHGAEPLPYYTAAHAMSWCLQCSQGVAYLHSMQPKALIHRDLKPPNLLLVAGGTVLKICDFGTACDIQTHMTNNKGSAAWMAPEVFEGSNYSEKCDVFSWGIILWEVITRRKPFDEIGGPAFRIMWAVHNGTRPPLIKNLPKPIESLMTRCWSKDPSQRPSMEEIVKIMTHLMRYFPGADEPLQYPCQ
Procedure: as §1, §2

TESK1 = target: T11, TESK1 (Homo sapiens, UniProt Q15569); test: Kinase profiling at 1 μM (Reaction Biology); type: biochemical; conditions: ATP 10 μM
T11 construct: purchased Reaction Biology Corporation
Procedure: as §1, §2

TLK1 = target: T12, TLK1 (Homo sapiens, UniProt Q9UKI8); test: Kinase profiling at 1 μM (Reaction Biology); type: biochemical; conditions: ATP 10 μM
T12 construct: purchased Reaction Biology Corporation
T12 sequence (Q9UKI8 whole entry): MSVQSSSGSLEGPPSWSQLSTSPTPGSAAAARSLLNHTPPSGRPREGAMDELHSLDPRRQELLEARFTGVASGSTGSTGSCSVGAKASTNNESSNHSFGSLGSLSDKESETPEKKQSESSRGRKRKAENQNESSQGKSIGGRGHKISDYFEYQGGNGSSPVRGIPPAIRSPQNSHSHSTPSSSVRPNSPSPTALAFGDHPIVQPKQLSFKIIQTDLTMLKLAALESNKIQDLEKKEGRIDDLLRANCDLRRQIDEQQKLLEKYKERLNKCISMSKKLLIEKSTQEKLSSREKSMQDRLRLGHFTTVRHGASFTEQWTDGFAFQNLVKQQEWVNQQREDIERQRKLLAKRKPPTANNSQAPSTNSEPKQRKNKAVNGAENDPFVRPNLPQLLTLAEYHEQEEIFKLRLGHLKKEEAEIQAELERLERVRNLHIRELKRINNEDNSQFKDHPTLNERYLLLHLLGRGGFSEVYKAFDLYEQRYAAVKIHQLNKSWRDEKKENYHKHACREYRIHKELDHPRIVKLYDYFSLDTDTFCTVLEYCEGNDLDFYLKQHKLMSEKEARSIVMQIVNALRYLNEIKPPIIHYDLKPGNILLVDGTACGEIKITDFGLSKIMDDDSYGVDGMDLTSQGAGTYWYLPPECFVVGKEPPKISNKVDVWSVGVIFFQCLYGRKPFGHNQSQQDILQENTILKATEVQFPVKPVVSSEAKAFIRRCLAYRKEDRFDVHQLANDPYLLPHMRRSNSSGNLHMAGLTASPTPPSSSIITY
Procedure: as §1, §2

c-5rc = target: T13, c-5rc (Homo sapiens, UniProt P12931); test: Kinase profiling at 1 μM (Reaction Biology); type: biochemical; conditions: ATP 10 μM
T13 construct: purchased Reaction Biology Corporation
Procedure: as §1, §2

Rev-CEM-GFP-Luc = conditions: all concentrations tested (up to 200 μM)

With `Cc1c[nH]c2ncnc(-c3ccc(NC(=O)N(CCO)c4ccccc4)cc3)c12` [Compound 18b, 1-(2-Hydroxyethyl)-3-(4-(5-methyl-7H-pyrrolo[2,3-d]pyrimidin-4-yl)phenyl)-1-phenylurea] as the molecule, how does the IC50 (ROCK-I) read?
Its IC50 is 5540 nM.

What about the “P450 % inh. at 10 μM 2C9” value (P450 2C9) of the same molecule?
Its value is 14%.

What about the IC50 [1] of the same molecule?
The IC50 was 0.47 µM.

And the inhibition at 0.1 µM (PC-3 cells; 0.1 μM)?
Its inhibition at 0.1 µM is 16.5%.

And the inhibition at 1 µM (PC-3 cells; 1 μM)?
The inhibition at 1 µM was 74%.

What about the inhibition at 10 µM (PC-3 cells; 10 μM) of the same molecule?
Its inhibition at 10 µM is 77.5%.

`COC(=O)c1ccc2[nH]c(C3CCN(c4ncnc5[nH]cc(Cl)c45)CC3)nc2c1` [Compound R10015, Methyl 2-(1-(5-chloro-7H-pyrrolo[2,3-d]pyrimidin-4-yl)piperidin-4-yl)-1Hbenzo[d]imidazole-5-carboxylate] was tested. Which SDF-1-mediated actin polymerization (resting CD4 T cells) did it give?
The SDF-1-mediated actin polymerization was “markedly depressed”.

What about the viral release (HIV-1(Env)) of the same molecule?
Its viral release is “inhibited”.

What about the “R5 viral infection of memory CD4 T cells” value (HIV-1(AD8)) of the same molecule?
The value was “inhibition”.

And the activity at 1 µM (BTK)?
Its activity at 1 µM is 90.2%.

What about the activity at 1 µM (CDK5/p35) of the same molecule?
Its activity at 1 µM is 85.5%.

What about the activity at 1 µM (FLT3) of the same molecule?
Its activity at 1 µM is 32.2%.

What about the activity at 1 µM (JNK1) of the same molecule?
Its activity at 1 µM is 95.2%.

What about the activity at 1 µM (KDR/VEGFR2) of the same molecule?
Its activity at 1 µM is 87.2%.

What about the activity at 1 µM (PKCa) of the same molecule?
The activity at 1 µM was 47.5%.

And the activity at 1 µM (R5K1)?
The activity at 1 µM was 47.2%.

And the activity at 1 µM (ROCK2)?
The activity at 1 µM was 29.5%.

And the activity at 1 µM (SLK/STK2)?
The activity at 1 µM was 108%.

And the activity at 1 µM (TAK1)?
Its activity at 1 µM is 82.4%.

And the activity at 1 µM (TESK1)?
The activity at 1 µM was 90.2%.

What about the activity at 1 µM (TLK1) of the same molecule?
Its activity at 1 µM is 98.5%.

What about the activity at 1 µM (c-5rc) of the same molecule?
Its activity at 1 µM is 92.4%.

And the cytotoxicity (Rev-CEM-GFP-Luc)?
Its cytotoxicity is “no detectable cytotoxicity”.
